One block for each compound: values may come before it.
How the values were obtained:
[1] = Liver Microsomal Clearance Assay, human; assay type: in vitro ADME; conditions: extraction ratio, human liver microsomes
Procedure: (§1) Liver Microsomal Clearance Assay
(§2) The in vitro microsomal clearance assay is designed to assess potential risks associated with hepatic metabolic stability of compounds. The test compound (1 μM) was incubated with liver microsomes (0.5 mg/mL) from different species (mouse, rat, monkey, dog and human) and NADPH (1 mM) in 100 mM potassium phosphate buffer at 37° C. At specific reaction time points (0, 5, 10 and 30 minutes), reaction aliquots were removed and reactions were terminated by addition of ice cold acetonitrile containing mass spectrometry internal standard. The samples were centrifuged and the supernatants were analyzed by LC-MS/MS. In vitro metabolic half-life (t1/2, min) and intrinsic clearance (CLint, μL/min/mg) are based on the rate and extent of metabolism of the test compound as determined by the disappearance of the parent compound from the reaction mixture. These values may be scaled to predict hepatic metabolic clearance rate (CLh, mL/min/kg) and extraction ratio (ER, expressed as a ratio of the predicted hepatic metabolic clearance to hepatic blood flow in that species). In general, compounds with high predicted CLint or ER in vitro are considered to be at high risk for exposure-limiting metabolism in vivo.

[2] = Liver Microsomal Clearance Assay, mouse; assay type: in vitro ADME; conditions: extraction ratio, mouse liver microsomes
Procedure: as §1, §2

[3] = In Vivo Pharmacokinetics Assay in mouse; conditions: male, Balb/c, plasma; for clearance at 24 h: IV 2 mg/kg
Procedure: (§3) Full pharmacokinetics study: Male Balb/c mice (n=3, body weights 22-25 g) or male Wistar rats (n=3, body weights 250-300 g) were administered the test compound intravenously via the lateral tail vein or orally via gavage. The formulation was typically a 2.5 mg/mL solution of the compound in 75% PEG300 and 25% D5W. Six blood samples of 50 μL each were collected serially for 24 h after dosing. The blood samples were centrifuged to separate the plasma. Plasma samples were analyzed and quantified by LC-MS/MS.
as §3, with “Rapid” for “Full”, “intravenously (IV)” for “intravenously”, “orally (PO)” for “orally”, “Blood” for “The blood”, “and plasma separated and pooled across” for “to separate”, “three animals at each time point per dose route.” for “plasma.”
For both full and rapid pharmacokinetics studies, the following parameters were calculated by non-compartmental regression analysis using Winnonlin 5.0 software (Pharsight, Mountain View, Calif., USA): plasma clearance (Cl), plasma maximum concentration (Cmax), plasma area-under-the-concentration-time-curve (AUC0-inf), and percent oral bioavailability (F %).

[4] = target: B-Raf V600E (Homo sapiens (Human), UniProt P15056, V600E); assay: B-Raf V600E/Mek Amplified Luminescence Proximity Homogeneous Assay (B-Raf V600E biochemical); conditions: read-out: BRAF V600E biochemical IC50
Chain of B-Raf V600E (P15056 whole entry V600E): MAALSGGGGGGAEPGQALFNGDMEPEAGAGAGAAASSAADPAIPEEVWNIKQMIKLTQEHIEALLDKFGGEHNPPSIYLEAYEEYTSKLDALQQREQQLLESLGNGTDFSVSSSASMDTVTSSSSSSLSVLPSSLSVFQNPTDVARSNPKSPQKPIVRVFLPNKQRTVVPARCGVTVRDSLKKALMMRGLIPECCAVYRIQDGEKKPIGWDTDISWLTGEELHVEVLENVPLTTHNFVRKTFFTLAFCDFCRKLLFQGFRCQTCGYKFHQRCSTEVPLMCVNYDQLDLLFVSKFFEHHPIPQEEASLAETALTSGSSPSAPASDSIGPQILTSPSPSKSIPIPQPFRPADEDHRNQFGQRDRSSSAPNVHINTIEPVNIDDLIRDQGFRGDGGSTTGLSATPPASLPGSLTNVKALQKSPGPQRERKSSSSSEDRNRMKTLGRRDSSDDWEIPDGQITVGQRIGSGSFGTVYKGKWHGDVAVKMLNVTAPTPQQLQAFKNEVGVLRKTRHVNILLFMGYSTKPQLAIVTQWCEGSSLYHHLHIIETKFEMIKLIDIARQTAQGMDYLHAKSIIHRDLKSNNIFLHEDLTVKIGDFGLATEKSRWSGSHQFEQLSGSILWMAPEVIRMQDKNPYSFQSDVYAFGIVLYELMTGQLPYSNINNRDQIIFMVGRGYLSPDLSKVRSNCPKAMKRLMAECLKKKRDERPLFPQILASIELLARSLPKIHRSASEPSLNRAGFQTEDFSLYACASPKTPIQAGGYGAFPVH
Procedure: The plate was incubated for 60 minutes at room temperature.
The B-Raf kinase activity reaction was started by the addition of 10 μl per well of 2×ATP (10 μM) diluted in assay buffer. After 3 hours, the reactions were stopped with the addition of 10 μl of stop reagent (60 mM EDTA, 0.01% Tween20). Phosphorylated product was measured using a rabbit anti-p-MEK (Cell Signaling, #9121) antibody and the Alpha Screen IgG (ProteinA) detection Kit (PerkinElmer #6760617R), by the addition of 30 μl to the well of a mixture of the antibody (1:2000 dilution) and detection beads (1:1000 dilution of both beads) in bead buffer (50 mM Tris, pH 7.5, 0.01% Tween20). The additions were carried out under dark conditions to protect the detection beads from light. A lid was placed on top of the plate and the plate was incubated for 1 hour at room temperature. The luminescence was read on a PerkinElmer Envision instrument. The concentration of each compound for 50% inhibition (IC50) was calculated by non-linear regression using XL Fit data analysis software.

[5] = 5 mg/kg, PO/IV 5/2 mg/kg, n = 1

- ER Human [1]: 0.66
- ER Mouse [2]: 0.79
- bioavailability at 24 h [3, 5]: 46%
- clearance at 24 h [3]: 7 mL/min/kg
- AUC at 24 h ([3]; PO 5 mg/kg, n = 1): 9.7 µM·h
- Cmax at 24 h ([3]; PO 5 mg/kg, n = 1): 7400 nM
Structure (SMILES): CCCS(=O)(=O)Nc1cc(Cl)cc(-c2nn(C(C)C)cc2-c2ccnc(NC[C@H](C)NC(=O)OC)n2)c1F [Compound 1, Methyl N-[(2S)-1-[(4-{3-[5-chloro-2-fluoro-3-(propane-1-sulfonamido)phenyl]-1-(propan-2-yl)-1H-pyrazol-4-yl}pyrimidin-2-yl)amino]propan-2-yl]carbamate]

- IC50 [4]: 0.8 nM
Structure (SMILES): COC(=O)N[C@@H](C)CNc1nccc(-c2cn(C(C)C)nc2-c2cc(Cl)cc(NS(C)(=O)=O)c2)n1 [Compound 2, methyl N-[(2S)-1-({4-[3-(3-chloro-5-methanesulfonamidophenyl)-1-(propan-2-yl)-1H-pyrazol-4-yl]pyrimidin-2-yl}amino)propan-2-yl]carbamate]

- IC50 [4]: 2.3 nM
- ER Human [1]: <0.31
- ER Mouse [2]: 0.40
- bioavailability at 24 h ([3]; 10 mg/kg, PO/IV 10/2 mg/kg): 36 ± 6%
- clearance at 24 h [3]: 41 ± 9 mL/min/kg
- AUC at 24 h ([3]; PO 10 mg/kg): 3 ± 0.5 µM·h
- Cmax at 24 h ([3]; PO 10 mg/kg): 2000 ± 500 nM
Structure (SMILES): COC(=O)N[C@@H](C)CNc1nccc(-c2cn(C(C)C)nc2-c2cccc(NS(C)(=O)=O)c2F)n1 [Compound 4, methyl N-[(2S)-1-({4-[3-(2-fluoro-3-methanesulfonamidophenyl)-1-(propan-2-yl)-1H-pyrazol-4-yl]pyrimidin-2-yl}amino)propan-2-yl]carbamate]

- IC50 [4]: 1.1 nM
Structure (SMILES): COC(=O)N[C@@H](C)CNc1nccc(-c2cn(C(C)C)nc2-c2cc(F)cc(NS(C)(=O)=O)c2Cl)n1 [Compound 15, Methyl N-[(2S)-1-({4-[3-(2-chloro-5-fluoro-3-methanesulfonamidophenyl)-1-(propan-2-yl)-1H-pyrazol-4-yl]pyrimidin-2-yl}amino)propan-2-yl]carbamate]

- IC50 [4]: 1.7 nM
Structure (SMILES): CCS(=O)(=O)Nc1c(F)ccc(-c2nn(C(C)C)cc2-c2ccnc(NC[C@H](C)NC(=O)OC)n2)c1F [Compound 26, methyl N-[(2S)-1-({4-[3-(3-ethanesulfonamido-2,4-difluorophenyl)-1-(propan-2-yl)-1H-pyrazol-4-yl]pyrimidin-2-yl}amino)propan-2-yl]carbamate]

- IC50 [4]: 390 nM
Structure (SMILES): COC(=O)N[C@@H](C)CNc1nccc(-c2cn(C(C)C)nc2-c2cc(NS(C)(=O)=O)c(C)c(OC)c2)n1 [Compound 27]

- IC50 [4]: 4.3 nM
Structure (SMILES): CC(C)n1cc(-c2ccnc(N)n2)c(-c2cc(Cl)cc(NS(C)(=O)=O)c2F)n1 [Compound 30, N-{3-[4-(2-aminopyrimidin-4-yl)-1-(propan-2-yl)-1H-pyrazol-3-yl]-5-chloro-2-fluorophenyl}methanesulfonamide]

The remaining lines, values behind:

Structure (SMILES): CCCS(=O)(=O)Nc1cccc(-c2nn(C(C)C)cc2-c2ccnc(NC[C@H](C)NC(=O)OC)n2)c1F [Compound 3, methyl N-[(2S)-1-[(4-{3-[2-fluoro-3-(propane-1-sulfonamido)phenyl]-1-(propan-2-yl)-1H-pyrazol-4-yl}pyrimidin-2-yl)amino]propan-2-yl]carbamate]
- ER Human [1]: 0.69
- ER Mouse [2]: 0.85
- bioavailability at 24 h [3, 5]: 6%
- clearance at 24 h [3]: 51 mL/min/kg
- AUC at 24 h ([3]; PO 5 mg/kg, n = 1): 0.2 µM·h
- Cmax at 24 h ([3]; PO 5 mg/kg, n = 1): 70 nM

Structure (SMILES): CCCS(=O)(=O)Nc1cc(Cl)cc(-c2nn(C(C)C)cc2-c2ccnc(NC[C@H](C)NC(=O)OC)n2)c1 [Compound 5, methyl N-[(2S)-1-[(4-{3-[3-chloro-5-(propane-1-sulfonamido)phenyl]-1-(propan-2-yl)-1H-pyrazol-4-yl}pyrimidin-2-yl)amino]propan-2-yl]carbamate]
- IC50 [4]: 0.2 nM

Structure (SMILES): COC(=O)N[C@@H](C)CNc1nccc(-c2cn(C(C)C)nc2-c2c(F)ccc(NS(C)(=O)=O)c2F)n1 [Compound 6, methyl N-[(2S)-1-({4-[3-(2,6-difluoro-3-methanesulfonamidophenyl)-1-(propan-2-yl)-1H-pyrazol-4-yl]pyrimidin-2-yl}amino)propan-2-yl]carbamate]
- IC50 [4]: 3.9 nM
- ER Human [1]: 0.69
- bioavailability at 24 h ([3]; 10 mg/kg, PO/IV 10/2 mg/kg): 15 ± 3%
- clearance at 24 h [3]: 61 ± 6 mL/min/kg
- AUC at 24 h ([3]; PO 10 mg/kg): 1.1 ± 0.2 µM·h
- Cmax at 24 h ([3]; PO 10 mg/kg): 600 ± 20 nM

Structure (SMILES): COC(=O)N[C@@H](C)CNc1nccc(-c2cn(C(C)C)nc2-c2cc(F)cc(NS(C)(=O)=O)c2F)n1 [Compound 10, methyl N-[(2S)-1-({4-[3-(2,5-difluoro-3-methanesulfonamidophenyl)-1-(propan-2-yl)-1H-pyrazol-4-yl]pyrimidin-2-yl}amino)propan-2-yl]carbamate]
- IC50 [4]: 0.6 nM

Structure (SMILES): CCn1cc(-c2ccnc(NC[C@H](C)NC(=O)OC)n2)c(-c2cc(Cl)cc(NS(C)(=O)=O)c2F)n1 [Compound 11, methyl N-[(2S)-1-({4-[3-(5-chloro-2-fluoro-3-methanesulfonamidophenyl)-1-ethyl-1H-pyrazol-4-yl]pyrimidin-2-yl}amino)propan-2-yl]carbamate]
- IC50 [4]: 0.5 nM

Structure (SMILES): COC(=O)N[C@@H](C)CNc1nccc(-c2cn(C(C)C)nc2-c2ccnc(NS(C)(=O)=O)c2F)n1 [Compound 16, methyl N-[(2S)-1-({4-[3-(3-fluoro-2-methanesulfonamidopyridin-4-yl)-1-(propan-2-yl)-1H-pyrazol-4-yl]pyrimidin-2-yl}amino)propan-2-yl]carbamate]
- IC50 [4]: 24 nM

Structure (SMILES): COC(=O)N[C@@H](C)CNc1nccc(-c2cn(C(C)C)nc2-c2ccc(F)c(NS(C)(=O)=O)c2F)n1 [Compound 19, methyl N-[(2S)-1-({4-[3-(2,4-difluoro-3-methanesulfonamidophenyl)-1-(propan-2-yl)-1H-pyrazol-4-yl]pyrimidin-2-yl}amino)propan-2-yl]carbamate]
- IC50 [4]: 6.1 nM

Structure (SMILES): CC(C)n1cc(-c2ccnc(NCCN(C)C)n2)c(-c2cc(Cl)cc(NS(C)(=O)=O)c2F)n1 [Compound 28, N-{5-chloro-3-[4-(2-{[2-(dimethylamino)ethyl]amino}pyrimidin-4-yl)-1-(propan-2-yl)-1H-pyrazol-3-yl]-2-fluorophenyl}methanesulfonamide]
- IC50 [4]: 90 nM

Structure (SMILES): CNc1nccc(-c2cn(C(C)C)nc2-c2cc(Cl)cc(NS(C)(=O)=O)c2F)n1 [Compound 29, N-(5-chloro-2-fluoro-3-{4-[2-(methylamino)pyrimidin-4-yl]-1-(propan-2-yl)-1H-pyrazol-3-yl}phenyl)methanesulfonamide]
- IC50 [4]: 8 nM

Structure (SMILES): COC(=O)N[C@@H](C)CNc1nccc(-c2c[nH]nc2-c2cc(Cl)cc(NS(C)(=O)=O)c2F)n1 [Compound 31, Methyl N-[(2S)-1-({4-[3-(5-chloro-2-fluoro-3-methanesulfonamidophenyl)-1H-pyrazol-4-yl]pyrimidin-2-yl}amino)propan-2-yl]carbamate]
- IC50 [4]: 0.8 nM

Structure (SMILES): COC(=O)NC[C@H](C)Nc1nccc(-c2cn(C(C)C)nc2-c2cc(Cl)cc(NS(C)(=O)=O)c2F)n1 [Compound 32, Methyl N-[(2S)-2-({4-[3-(5-chloro-2-fluoro-3-methanesulfonamidophenyl)-1-(propan-2-yl)-1H-pyrazol-4-yl]pyrimidin-2-yl}amino)propyl]carbamate]
- IC50 [4]: 2.9 nM

Structure (SMILES): CCCS(=O)(=O)Nc1c(F)ccc(-c2nn(C(C)C)cc2-c2ccnc(NC[C@H](C)NC(=O)OC)n2)c1F [Compound 34, methyl N-[(2S)-1-[(4-{3-[2,4-difluoro-3-(propane-1-sulfonamido)phenyl]-1-(propan-2-yl)-1H-pyrazol-4-yl}pyrimidin-2-yl)amino]propan-2-yl]carbamate]
- IC50 [4]: 2.7 nM
